Results from US20240299558A1, “PROTEOLYSIS TARGETING CHIMERAS AND POLYPHARMACOLOGICAL AGENTS TARGETING BCL-2, AND METHODS OF USE THEREOF” (University of Maryland, Baltimore, priority 2021, published 2024).

Tests used:
[1] = test system: MOLM14 AML cells; assay: Luc-labelled MOLM14 AML xenograft pilot experiment in NRG mice; details: two 5d PO treatment cycles (d1-5, d21-25), imaging d7, d14, d21, 5 mice/group
Description: Statistical analyses are conducted using GraphPad software. AML burden is quantified using log transformed ratio of luminescence at d7/14/21 vs do for each mouse (fold-change); groups are compared using the appropriate parametric (ANOVA; t-test, etc) or non-parametric alternative as necessary (Wilcoxon rank sum, Kruskal-Wallis). For time-to-event endpoints, Kaplan-Meier survival of groups are compared using the log-rank test. p<0.05 is considered statistically different.
On d0, after Xenogen quantification of baseline total body luminescence (AML burden), groups of 5 AML-bearing mice were treated on days 1-5, per previously established MTD PO×5d schedule, with VEN (150 mg/kg/d PO×5), as monotherapy or co-administered with SOR (30 mg/kg/d PO×5), ART (50 mg/kg/d PO×5), and/or ASP (200 IU/kg IP single dose). A second identical drug cycle was administered on d21-25. On d7, d14 and d21, each mouse was Xenogen imaged for total body luminescence, fold-change AML burden from do was calculated for each mouse, and mean (+/−SD) fold-change for each experimental group plotted.

[2] = molecular target: BCL-2^1-211 (Homo sapiens, UniProt P10415); assay: Fluorescence polarization competition assay (FPCA), FITC-Bak competed off BCL-2; type: binding
Sequence of BCL-2^1-211 (P10415 1-211): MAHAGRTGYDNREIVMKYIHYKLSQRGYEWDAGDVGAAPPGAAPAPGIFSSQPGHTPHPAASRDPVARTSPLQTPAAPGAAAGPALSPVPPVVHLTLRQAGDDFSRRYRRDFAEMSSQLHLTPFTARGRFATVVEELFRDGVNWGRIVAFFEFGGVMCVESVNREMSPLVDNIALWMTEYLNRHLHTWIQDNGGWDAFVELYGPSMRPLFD
Description: Fluorescence polarization assays were performed in 96 well polypropylene F-bottom black microplates (Greiner Bio-One) with a final volume of 100 μL. […] The changes in the fluorescence polarization were then measured using a BMG PHERAstar FS multimode microplate reader equipped with two PMTs for simultaneous measurements of both the perpendicular and parallel fluorescence emission at a 485 nm excitation and 520 nm emission filter.
The fluorescence polarization competition assays were setup using a Biomek FXP Automated Liquid Handling System. […] The IC50 values were then converted to Ki values using an equation derived by Nikolovska-Coleska et al. All inhibitors were tested in triplicate.

IC50 [2] [µM] | Molecule | AML burden over time (fold-change total body luminescence) vs vehicle [1] | AML burden over time (fold-change total body luminescence) vs vehicle ([1]; listed as SOR)
– | CNC(=O)c1cc(Oc2ccc(NC(=O)Nc3ccc(Cl)c(C(F)(F)F)c3)cc2)ccn1 [Sorafenib] | reduced AML burden only moderately | significant difference in AML burden only at d7 and d14
– | PEGylated L-asparaginase | minimal activity | –
< 0.02 | CC1(C)CCC(CN2CCN(c3ccc(C(=O)NS(=O)(=O)c4ccc(NCCOCCOCCNC(=O)C(c5ccccc5)c5ccccc5)c([N+](=O)[O-])c4)c(Oc4cnc5[nH]ccc5c4)c3)CC2)=C(c2ccc(Cl)cc2)C1 [CG-2-132] | – | –
< 0.02 | CC(C)Cc1ccc([C@@H](C)C(=O)NCCOCCOCCNc2ccc(S(=O)(=O)NC(=O)c3ccc(N4CCN(CC5=C(c6ccc(Cl)cc6)CC(C)(C)CC5)CC4)cc3Oc3cnc4[nH]ccc4c3)cc2[N+](=O)[O-])cc1 [CG-3-005] | – | –
< 0.02 | CC1(C)CCC(CN2CCN(c3ccc(C(=O)NS(=O)(=O)c4ccc(NCCNC(=O)CC56CC7CC(CC(C7)C5)C6)c([N+](=O)[O-])c4)c(Oc4cnc5[nH]ccc5c4)c3)CC2)=C(c2ccc(Cl)cc2)C1 [SF-7-330] | – | –
